{"source": "patent US20260262643A1", "about": "“HERBICIDAL BENZOXAZINES” (FMC CORPORATION, priority 2022, published 2026)", "key": {"wheat [1]": {"tested_on": "wheat", "assay": "Test C preemergence", "assay_type": "in vivo, Triticum aestivum", "in_short": "(§1)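 Test material, in non-phytotoxic solvent with surfactant, was sprayed on the soil directly after seeding (preemergence) or on young plants of 2–10 cm with one to two leaves (postemergence). Greenhouse, 10 days; 0–100 visual control scale.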"}, "kochia [2]": {"tested_on": "kochia", "assay": "Test C postemergence", "assay_type": "in vivo, Bassia scoparia", "settings": "10 days, 0 to 100 scale (0 no effect, 100 complete control)", "in_short": "as §1"}, "oat, wild [3]": {"tested_on": "oat, wild", "assay": "Test C postemergence", "assay_type": "in vivo, Avena fatua", "settings": "10 days, 0 to 100 scale (0 no effect, 100 complete control)", "in_short": "as §1"}, "galium": {"tested_on": "galium", "assay": "Test C postemergence", "assay_type": "in vivo, Galium aparine", "settings": "10 days, 0 to 100 scale (0 no effect, 100 complete control)", "in_short": "as §1"}, "soybean [4]": {"tested_on": "soybean", "assay": "Test C postemergence", "assay_type": "in vivo, Glycine max", "settings": "10 days, 0 to 100 scale (0 no effect, 100 complete control)", "in_short": "as §1"}, "barnyardgrass [5]": {"tested_on": "barnyardgrass", "assay": "Test C postemergence", "assay_type": "in vivo, Echinochloa crusgalli", "settings": "10 days, 0 to 100 scale (0 no effect, 100 complete control)", "in_short": "as §1"}, "wheat [6]": {"tested_on": "wheat", "assay": "Test C postemergence", "assay_type": "in vivo, Triticum aestivum", "settings": "10 days, 0 to 100 scale (0 no effect, 100 complete control)", "in_short": "as §1"}, "sedge, umbrella": {"tested_on": "sedge, umbrella", "assay": "Test D flooded paddy test", "assay_type": "in vivo, Cyperus difformis", "settings": "250 g ai/ha, applied to paddy water, visual rating after 13 to 14 days, scale 0 to 100 (0 no effect, 100 complete control)", "in_short": "(§2)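 Plants grown to the 2-leaf stage; pots flooded to 3 cm above soil at treatment and held at that depth throughout. Test compounds applied directly to the paddy water. After 13 to 14 days in a greenhouse, response was rated visually versus controls on a 0 (no effect) to 100 (complete control) scale.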"}, "pigweed, palmer [7]": {"tested_on": "pigweed, palmer", "assay": "Test C postemergence", "assay_type": "in vivo, Amaranthus palmeri", "settings": "10 days, 0 to 100 scale (0 no effect, 100 complete control)", "in_short": "as §1"}, "corn [8]": {"tested_on": "corn", "assay": "Test C postemergence", "assay_type": "in vivo, Zea mays", "settings": "10 days, 0 to 100 scale (0 no effect, 100 complete control)", "in_short": "as §1"}, "blackgrass [9]": {"tested_on": "blackgrass", "assay": "Test C postemergence", "assay_type": "in vivo, Alopecurus myosuroides", "settings": "10 days, 0 to 100 scale (0 no effect, 100 complete control)", "in_short": "as §1"}, "barnyardgrass [10]": {"tested_on": "barnyardgrass", "assay": "Test C preemergence", "assay_type": "in vivo, Echinochloa crusgalli", "in_short": "as §1"}, "ragweed [11]": {"tested_on": "ragweed", "assay": "Test C postemergence", "assay_type": "in vivo, Ambrosia artemisiifolia", "settings": "10 days, 0 to 100 scale (0 no effect, 100 complete control)", "in_short": "as §1"}, "ragweed [12]": {"tested_on": "ragweed", "assay": "Test C preemergence", "assay_type": "in vivo, Ambrosia artemisiifolia", "in_short": "as §1"}, "kochia [13]": {"tested_on": "kochia", "assay": "Test C preemergence", "assay_type": "in vivo, Bassia scoparia", "in_short": "as §1"}, "rice": {"tested_on": "rice", "assay": "Test D flooded paddy test", "assay_type": "in vivo, Oryza sativa", "settings": "250 g ai/ha, applied to paddy water, visual rating after 13 to 14 days, scale 0 to 100 (0 no effect, 100 complete control)", "in_short": "as §2"}, "barnyardgrass [14]": {"tested_on": "barnyardgrass", "assay": "Test D flooded paddy test", "assay_type": "in vivo, Echinochloa crus-galli", "settings": "250 g ai/ha, applied to paddy water, visual rating after 13 to 14 days, scale 0 to 100 (0 no effect, 100 complete control)", "in_short": "as §2"}, "blackgrass [15]": {"tested_on": "blackgrass", "assay": "Test C preemergence", "assay_type": "in vivo, Alopecurus myosuroides", "in_short": "as §1"}, "foxtail, giant [16]": {"tested_on": "foxtail, giant", "assay": "Test C preemergence", "assay_type": "in vivo, Setaria faberi", "in_short": "as §1"}, "ryegrass, Italian [17]": {"tested_on": "ryegrass, Italian", "assay": "Test C preemergence", "assay_type": "in vivo, Lolium multiflorum", "in_short": "as §1"}, "soybean [18]": {"tested_on": "soybean", "assay": "Test C preemergence", "assay_type": "in vivo, Glycine max", "in_short": "as §1"}, "horseweed": {"tested_on": "horseweed", "assay": "Test C postemergence", "assay_type": "in vivo, Erigeron canadensis", "settings": "10 days, 0 to 100 scale (0 no effect, 100 complete control)", "in_short": "as §1"}, "corn [19]": {"tested_on": "corn", "assay": "Test C preemergence", "assay_type": "in vivo, Zea mays", "in_short": "as §1"}, "ducksalad": {"tested_on": "ducksalad", "assay": "Test D flooded paddy test", "assay_type": "in vivo, Heteranthera limosa", "settings": "250 g ai/ha, applied to paddy water, visual rating after 13 to 14 days, scale 0 to 100 (0 no effect, 100 complete control)", "in_short": "as §2"}, "oat, wild [20]": {"tested_on": "oat, wild", "assay": "Test C preemergence", "assay_type": "in vivo, Avena fatua", "in_short": "as §1"}, "foxtail, giant [21]": {"tested_on": "foxtail, giant", "assay": "Test C postemergence", "assay_type": "in vivo, Setaria faberi", "settings": "10 days, 0 to 100 scale (0 no effect, 100 complete control)", "in_short": "as §1"}, "pigweed, palmer [22]": {"tested_on": "pigweed, palmer", "assay": "Test C preemergence", "assay_type": "in vivo, Amaranthus palmeri", "in_short": "as §1"}, "ryegrass, Italian [23]": {"tested_on": "ryegrass, Italian", "assay": "Test C postemergence", "assay_type": "in vivo, Lolium multiflorum", "settings": "10 days, 0 to 100 scale (0 no effect, 100 complete control)", "in_short": "as §1"}, "[24]": {"settings": "500 g ai/ha, preemergence, 0 to 100 scale (0 no effect, 100 complete control)"}, "[25]": {"settings": "Preemergence, 125 g ai/ha, 0 to 100 scale, 0 no effect, 100 complete control"}}, "data": [{"smiles": "Cc1cccc2c1OC(C(F)(F)F)CN2C(=O)c1ccnc(-n2cnc(C(C)C)n2)c1", "note": "(single isomer, unassigned) [Compound 320]", "values": [{"measurement": "Wheat plant response rating", "setting": "wheat [1]; [24]", "value": 90}, {"measurement": "Plant response rating, Wheat", "setting": "wheat [1]; [25]", "value": 20}, {"measurement": "Plant response rating, Kochia", "setting": "kochia [2]; 500 g ai/ha, postemergence", "value": 80}, {"measurement": "Plant response rating, Kochia", "setting": "kochia [2]; Postemergence, 125 g ai/ha", "value": 40}, {"measurement": "Plant response rating, Oat, Wild", "setting": "oat, wild [3]; 500 g ai/ha, postemergence", "value": 10}, {"measurement": "Plant response rating, Oat, Wild", "setting": "oat, wild [3]; Postemergence, 125 g ai/ha", "value": 10}, {"measurement": "Plant response rating, Galium", "setting": "galium; 500 g ai/ha, postemergence", "value": 70}, {"measurement": "Plant response rating, Galium", "setting": "galium; Postemergence, 125 g ai/ha", "value": 50}, {"measurement": "Plant response rating, Soybean", "setting": "soybean [4]; 500 g ai/ha, postemergence", "value": 100}, {"measurement": "Plant response rating, Soybean", "setting": "soybean [4]; Postemergence, 125 g ai/ha", "value": 50}, {"measurement": "Plant response rating, Barnyardgrass", "setting": "barnyardgrass [5]; 500 g ai/ha, postemergence", "value": 20}, {"measurement": "Plant response rating, Barnyardgrass", "setting": "barnyardgrass [5]; Postemergence, 125 g ai/ha", "value": 0}, {"measurement": "Plant response rating, Wheat", "setting": "wheat [6]; 500 g ai/ha, postemergence", "value": 30}, {"measurement": "Plant response rating, Wheat", "setting": "wheat [6]; Postemergence, 125 g ai/ha", "value": 10}, {"measurement": "Plant response rating, Sedge, Umbrella (Flood)", "setting": "sedge, umbrella", "value": 0}, {"measurement": "Plant response rating, Pigweed, Palmer", "setting": "pigweed, palmer [7]; 500 g ai/ha, postemergence", "value": 50}, {"measurement": "Plant response rating, Pigweed, Palmer", "setting": "pigweed, palmer [7]; Postemergence, 125 g ai/ha", "value": 0}, {"measurement": "Plant response rating, Corn", "setting": "corn [8]; 500 g ai/ha, postemergence", "value": 40}, {"measurement": "Plant response rating, Corn", "setting": "corn [8]; Postemergence, 125 g ai/ha", "value": 10}, {"measurement": "Plant response rating, Blackgrass", "setting": "blackgrass [9]; 500 g ai/ha, postemergence", "value": 10}, {"measurement": "Plant response rating, Blackgrass", "setting": "blackgrass [9]; Postemergence, 125 g ai/ha", "value": 0}, {"measurement": "Barnyardgrass plant response rating", "setting": "barnyardgrass [10]; [24]", "value": 80}, {"measurement": "Plant response rating, Barnyardgrass", "setting": "barnyardgrass [10]; [25]", "value": 30}, {"measurement": "Plant response rating, Ragweed", "setting": "ragweed [11]; 500 g ai/ha, postemergence", "value": 50}, {"measurement": "Plant response rating, Ragweed", "setting": "ragweed [11]; Postemergence, 125 g ai/ha", "value": 0}, {"measurement": "Ragweed plant response rating", "setting": "ragweed [12]; [24]", "value": 0}, {"measurement": "Plant response rating, Ragweed", "setting": "ragweed [12]; [25]", "value": 0}, {"measurement": "Kochia plant response rating", "setting": "kochia [13]; [24]", "value": 10}, {"measurement": "Plant response rating, Kochia", "setting": "kochia [13]; [25]", "value": 10}, {"measurement": "Plant response rating, Rice (Flood)", "setting": "rice", "value": 0}, {"measurement": "Plant response rating, Barnyardgrass (Flood)", "setting": "barnyardgrass [14]", "value": 0}, {"measurement": "Blackgrass plant response rating", "setting": "blackgrass [15]; [24]", "value": 60}, {"measurement": "Plant response rating, Blackgrass", "setting": "blackgrass [15]; [25]", "value": 0}, {"measurement": "Foxtail, Giant plant response rating", "setting": "foxtail, giant [16]; [24]", "value": 90}, {"measurement": "Plant response rating, Foxtail, Giant", "setting": "foxtail, giant [16]; [25]", "value": 20}, {"measurement": "Ryegrass, Italian plant response rating", "setting": "ryegrass, Italian [17]; [24]", "value": 90}, {"measurement": "Plant response rating, Ryegrass, Italian", "setting": "ryegrass, Italian [17]; [25]", "value": 80}, {"measurement": "Soybean plant response rating", "setting": "soybean [18]; [24]", "value": 100}, {"measurement": "Plant response rating, Soybean", "setting": "soybean [18]; [25]", "value": 10}, {"measurement": "Plant response rating, Horseweed", "setting": "horseweed; 500 g ai/ha, postemergence", "value": 40}, {"measurement": "Plant response rating, Horseweed", "setting": "horseweed; Postemergence, 125 g ai/ha", "value": 10}, {"measurement": "Corn plant response rating", "setting": "corn [19]; [24]", "value": 30}, {"measurement": "Plant response rating, Corn", "setting": "corn [19]; [25]", "value": 30}, {"measurement": "Plant response rating, Ducksalad (Flood)", "setting": "ducksalad", "value": 0}, {"measurement": "Oat, Wild plant response rating", "setting": "oat, wild [20]; [24]", "value": 40}, {"measurement": "Plant response rating, Oat, Wild", "setting": "oat, wild [20]; [25]", "value": 10}, {"measurement": "Plant response rating, Foxtail, Giant", "setting": "foxtail, giant [21]; 500 g ai/ha, postemergence", "value": 40}, {"measurement": "Plant response rating, Foxtail, Giant", "setting": "foxtail, giant [21]; Postemergence, 125 g ai/ha", "value": 20}, {"measurement": "Pigweed, Palmer plant response rating", "setting": "pigweed, palmer [22]; [24]", "value": 100}, {"measurement": "Plant response rating, Pigweed, Palmer", "setting": "pigweed, palmer [22]; [25]", "value": 20}, {"measurement": "Plant response rating, Ryegrass, Italian", "setting": "ryegrass, Italian [23]; 500 g ai/ha, postemergence", "value": 30}, {"measurement": "Plant response rating, Ryegrass, Italian", "setting": "ryegrass, Italian [23]; Postemergence, 125 g ai/ha", "value": 20}]}]}
